Where only a bound is given, the exact number is not on record here.

The target of one test is T1, LecA (Pseudomonas aeruginosa, UniProt Q05097).
T1 construct: made in house; host or cells: E. coli BL21 (DE3), plasmid pET25pa11
T1 sequence (Q05097 whole entry): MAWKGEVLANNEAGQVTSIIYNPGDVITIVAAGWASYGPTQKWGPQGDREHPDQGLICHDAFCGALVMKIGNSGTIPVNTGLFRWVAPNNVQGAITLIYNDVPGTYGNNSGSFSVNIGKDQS
Kind of test: biochemical. Type of test: binding. As to conditions: IC50, LecA inhibition, competitive binding assay (FP), tested up to 1.5 mM, n ≥ 2. As for the experimental part:
Therefore, we focused our attention on commercially available nitro‐catechols. Prominent derivatives are inhibitors of the enzyme catechol‐O‐methyltransferase (COMT) and approved drugs for the treatment of Parkinson's disease. Four commercial COMT inhibitors were thus evaluated in a previously reported competitive binding assay based on fluorescence polarisation (FP, Table 1, Figure 1).^[ [32] ^]
The competitive binding assay was performed in analogy to Joachim et al.^[2] 10 µL of a solution containing LecA (40 µM) and sulfo-Cy5-Gal (20 nM, synthesis described in Kuhaudomlarp, Siebs et al.^[5]) in TBS/Ca buffer (20 mM Tris, 147 mM NaCl, 2.6 mM KCl at pH 7.4 supplemented with 1 mM CaCl2) were distributed in into wells of a black 384-well microtiter plate (Greiner Bio-One, Germany, cat no 781900). Then, 10 µL of serial dilutions of compounds (3 mM to 1.5 µM, dilution factor 0.5) in TBS/Ca with 40% DMSO were added in technical triplicates. Final concentrations after mixing were the following: 1.5 mM – 0.73 µM compound, 20 µM LecA, 10 nM sulfo-Cy5-Gal and 20% DMSO. The plate was sealed (EASYseal, Greiner Bio-One, cat no 676001), briefly centrifuged and incubated at room temperature in the dark under shaking conditions. Fluorescence intensity was measured after 1 h and 4 h using a PheraStar FS plate reader (BMG Labtech GmbH, Germany) with spectral filters for excitation at 590 nm and emission at 675 nm and polarization was calculated after blank values of 20 µM LecA in TBS/Ca buffer with 20% DMSO were subtracted from the test compounds. The data were analysed using the four-parameter variable slope model of the MARS Data Analysis software. The top and bottom plateau were assigned based on the control compound methyl α-d-galactoside and the data was reanalysed with these fixed values. If not mentioned otherwise, the experiment was repeated at least three times for each compound and the average and standard deviation are given. In case Triton X-100 was used it was added to the TBS/Ca buffer before the assay.
`Cc1c(Cl)c(C)[n+]([O-])c(Cl)c1-c1noc(-c2cc(O)c(O)c([N+](=O)[O-])c2)n1` [compound 3, Opicapone, reference compound] registered an IC50 of 842 ± 134 µM.

Staying with this test, now noted: IC50, extended dose-response analysis, 20% DMSO, no 2-mercaptoethanol, three experiments.
In the case of `Cc1c(C(=O)c2cc(O)c(O)c([N+](=O)[O-])c2)[nH]c2ccccc12` [RO0403335], the IC50 amounted to 434 µM.

With `O=C(C(=O)c1cc(O)c(O)c([N+](=O)[O-])c1)c1ccccc1` [RO0621161], half-maximal inhibition (IC50) required 153 µM.

For the molecule `COC(=O)c1cccc(C(=O)c2cc(O)c(O)c([N+](=O)[O-])c2)c1` [RO0620808], the IC50 was 279 µM.

For the molecule `CC(O)CCOC(=O)c1cccc(C(=O)c2cc(O)c(O)c([N+](=O)[O-])c2)c1` (stereo not drawn) [RO0621239], the IC50 worked out at 192 µM.

For the molecule `O=C(c1cccc(F)c1)c1cc(O)c(O)c([N+](=O)[O-])c1` [RO0412713], it took 675 µM to reach half-maximal inhibition (IC50).

In turn, `Cc1ccc(C(=O)c2ccc(O)c(O)c2[N+](=O)[O-])cc1` [RO0614977] displayed an IC50 of 154 µM.

The molecule `CCN(CC)C(=O)c1cccc(C(=O)c2cc(O)c(O)c([N+](=O)[O-])c2)c1` [RO0621115] had an IC50 of 229 µM.

Molecule `CCCCCOC(=O)c1ccc(C(=O)c2cc(O)c(O)c([N+](=O)[O-])c2)cc1` [compound 35] came in with an IC50 of 72 µM.

`Cc1ccc(C(=O)c2cc(O)c(O)c(S(=O)(=O)C(F)(F)F)c2)cc1` [RO0616411] returned an IC50 of 338 µM.

`C=CCOC(=O)c1ccc(C(=O)c2cc(O)c(O)c([N+](=O)[O-])c2)cc1` [compound 32] registered an IC50 of 56 µM.

`C=CCOC(=O)c1cccc(C(=O)c2cc(O)c(O)c([N+](=O)[O-])c2)c1` [RO0620810] gave a 50% inhibitory concentration (IC50) of 139 µM.

In turn, `O=C(NCc1ccccc1)c1cccc(C(=O)c2cc(O)c(O)c([N+](=O)[O-])c2)c1` [RO0626786] returned an IC50 of 356 µM.

`CC(C)c1ccc(C(=O)c2cc(O)c(O)c([N+](=O)[O-])c2)cc1` [RO0615928]: the IC50 amounted to 129 µM.

In turn, `Cc1ccc(C(=O)C(=O)c2cc(O)c(O)c([N+](=O)[O-])c2)cc1` [RO0619291] came in with an IC50 of 128 µM.

Molecule `O=C(NCC1CC1)c1cccc(C(=O)c2cc(O)c(O)c([N+](=O)[O-])c2)c1` [RO0621004] yielded an IC50 of 363 µM.

In the case of `CCCNC(=O)c1cccc(C(=O)c2cc(O)c(O)c([N+](=O)[O-])c2)c1` [RO0621005], it took 422 µM to reach half-maximal inhibition (IC50).

With `CC(C)(C)c1ccc(C(=O)c2cc(O)c(O)c([N+](=O)[O-])c2)cc1` [RO0615662], the IC50 was 144 µM.

Regarding `O=C(c1ccncc1)c1cc(O)c(O)c([N+](=O)[O-])c1` [RO0403499], the IC50 was determined as 597 µM.

`CC(C)(C)COC(=O)c1cccc(C(=O)c2cc(O)c(O)c([N+](=O)[O-])c2)c1` [RO0626777] came in with an IC50 of 206 µM.

In turn, `O=C(c1cc(O)c(O)c([N+](=O)[O-])c1)c1cncc2ccccc12` [RO0408176] had an IC50 of 449 µM.

On to `COC(=O)c1ccc(C(=O)c2cc(O)c(O)c([N+](=O)[O-])c2)cc1` [RO0621265], for which half-maximal inhibition (IC50) was put at 330 µM.

Regarding `O=C(c1cc(O)c(O)c([N+](=O)[O-])c1)c1ccccc1Cl` [RO0413301], the IC50 turned out to be 108 µM.

`Cc1c(C(=O)c2cc(O)c(O)c([N+](=O)[O-])c2)[nH]c2ccc(Br)cc12` [compound 30] showed an IC50 of 43 µM.

Take `CCOC(=O)c1cccc(C(=O)c2cc(O)c(O)c([N+](=O)[O-])c2)c1` [RO0620809]: the IC50 was 244 µM.

Consider `O=C(OCCC(O)C(F)(F)F)c1cccc(C(=O)c2cc(O)c(O)c([N+](=O)[O-])c2)c1` (stereo not drawn) [RO0622624], for which it took 135 µM to reach half-maximal inhibition (IC50).

As to `CCCN(CCC)C(=O)c1cccc(C(=O)c2cc(O)c(O)c([N+](=O)[O-])c2)c1` [RO0621116], the IC50 was 173 µM.

Consider `N#Cc1ccccc1C(=O)c1cc(O)c(O)c([N+](=O)[O-])c1` [RO0413268], for which the IC50 worked out at 214 µM.

The molecule `O=C(OCc1ccccc1)c1ccc(C(=O)c2cc(O)c(O)c([N+](=O)[O-])c2)cc1` [compound 31] gave an IC50 of 47 µM.

As for `CCN(CC)C(=O)c1ccc(C(=O)c2cc(O)c(O)c([N+](=O)[O-])c2)cc1` [RO0620573], the IC50 was determined as 438 µM.

Molecule `O=[N+]([O-])c1cc(-c2cn3ncsc3n2)cc(O)c1O` [RO0199733] returned an IC50 above 1500 µM.

The molecule `O=C(c1cc(O)c(O)c([N+](=O)[O-])c1)c1ccccc1C(F)(F)F` [RO0413162] had an IC50 of 128 µM.

Molecule `CCCN(CCC)C(=O)c1c(Br)cc(O)c(O)c1[N+](=O)[O-]` [RO0627603] came in with an IC50 of 285 µM.

In turn, `CC(C)OC(=O)c1cccc(C(=O)c2cc(O)c(O)c([N+](=O)[O-])c2)c1` [RO0621109] registered an IC50 of 156 µM.

As to `CCCCNC(=O)c1cccc(C(=O)c2cc(O)c(O)c([N+](=O)[O-])c2)c1` [RO0621006], inhibition was half-maximal at 283 µM (IC50).

For `O=C(c1cccc(CO)c1)c1cc(O)c(O)c([N+](=O)[O-])c1` [RO0623430], the midpoint of inhibition, the IC50, lay at 446 µM.

For `O=C(c1cc(O)c(O)c([N+](=O)[O-])c1)c1ccnc2ccccc12` [RO0405919], half-maximal inhibition (IC50) was put at 174 µM.

For the molecule `CCCCCOC(=O)c1cccc(C(=O)c2cc(O)c(O)c([N+](=O)[O-])c2)c1` [compound 34], the IC50 stood at 63 µM.

The molecule `CCCNC(=O)c1ccc(C(=O)c2cc(O)c(O)c([N+](=O)[O-])c2)cc1` [RO0620570] came in with an IC50 of 347 µM.

The molecule `Cc1ccccc1C(=O)c1cc(O)c(O)c([N+](=O)[O-])c1` [RO0412734] came in with an IC50 of 116 µM.

`CCCCOC(=O)c1cccc(C(=O)c2cc(O)c(O)c([N+](=O)[O-])c2)c1` [RO0626778]: the IC50 is 117 µM.

`O=C(NC1CCCCC1)c1cccc(C(=O)c2cc(O)c(O)c([N+](=O)[O-])c2)c1` [RO0626783]: the IC50 is 430 µM.

`O=C(c1ccc(F)cc1)c1cc(O)c(O)c([N+](=O)[O-])c1` [RO0407028] showed an IC50 of 370 µM.

For `COCCOCc1ccc(C(=O)c2cc(O)c(O)c([N+](=O)[O-])c2)cc1` [RO0624122], half-maximal inhibition (IC50) required 289 µM.

In turn, `COC(=O)/C=C/c1cccc(C(=O)c2cc(O)c(O)c([N+](=O)[O-])c2)c1` [RO0619973] displayed an IC50 of 258 µM.

Still in this test, the particulars now being: IC50 in presence of 0.01% Triton X-100, FP assay, 0.01% Triton X-100, one replicate.
On to `C=CCOC(=O)c1ccc(C(=O)c2cc(O)c(O)c([N+](=O)[O-])c2)cc1` [compound 32], for which the IC50 came to 49 µM.

Regarding `Cc1c(C(=O)c2cc(O)c(O)c([N+](=O)[O-])c2)[nH]c2ccc(Br)cc12` [compound 30], the IC50 worked out at 59 µM.

Regarding `O=C(OCc1ccccc1)c1ccc(C(=O)c2cc(O)c(O)c([N+](=O)[O-])c2)cc1` [compound 31], the IC50 stood at 17 µM.

On to `CCCCCOC(=O)c1cccc(C(=O)c2cc(O)c(O)c([N+](=O)[O-])c2)c1` [compound 34], for which the IC50 was determined as 88 µM.

Still in this test, the particulars now being: IC50 in presence of 0.057% Triton X-100, FP assay, 0.057% Triton X-100, one replicate.
Consider `CCCCCOC(=O)c1ccc(C(=O)c2cc(O)c(O)c([N+](=O)[O-])c2)cc1` [compound 35], for which the IC50 was 66 µM.

Regarding `C=CCOC(=O)c1ccc(C(=O)c2cc(O)c(O)c([N+](=O)[O-])c2)cc1` [compound 32], the IC50 is 50 µM.

For `O=C(OCc1ccccc1)c1ccc(C(=O)c2cc(O)c(O)c([N+](=O)[O-])c2)cc1` [compound 31], the IC50 turned out to be 16 µM.

On to `CCCCCOC(=O)c1cccc(C(=O)c2cc(O)c(O)c([N+](=O)[O-])c2)c1` [compound 34], for which the IC50 stood at 61 µM.

Still in this test, the particulars now being: LecA inhibition, competitive binding assay (FP), tested up to 1.5 mM, n ≥ 2.
With `CC(=O)C(=Cc1cc(O)c(O)c([N+](=O)[O-])c1)C(C)=O` [compound 1, Nitecapone, reference compound], the IC50 entry is “no inhibition”.

As to `CCN(CC)C(=O)/C(C#N)=C/c1cc(O)c(O)c([N+](=O)[O-])c1` [compound 2, Entacapone, reference compound], the IC50 result is on record as “no inhibition”.

The same test, now with this note: LecA inhibition, competitive binding assay (FP), tested up to 1.5 mM, n ≥ 2; listed as Entacapone.
Turning to `CCN(CC)C(=O)/C(C#N)=C/c1cc(O)c(O)c([N+](=O)[O-])c1` [compound 2, Entacapone, reference compound], the IC50 entry is “inactive”.

Still in this test, the particulars now being: LecA inhibition, competitive binding assay (FP), tested up to 1.5 mM, n ≥ 2; listed as Nitecapone.
As to `CC(=O)C(=Cc1cc(O)c(O)c([N+](=O)[O-])c1)C(C)=O` [compound 1, Nitecapone, reference compound], the IC50 entry is “inactive”.

In general, IC50 refers to the concentration that inhibits the measured activity by half.

For the origin of these results see PMC12684298, “The Parkinson's Disease Drug Tolcapone and Analogues are Potent Glycomimetic Lectin Inhibitors of Pseudomonas aeruginosa LecA” (Angewandte Chemie (International Ed. in English), 2025).
